Assay results published in patent publication US6803379B2, “PHARMACOLOGICAL AGENTS AND METHODS OF TREATMENT THAT INACTIVATE PATHOGENIC PROKARYOTIC AND EUKARYOTIC CELLS AND VIRUSES BY ATTACKING HIGHLY CONSERVED DOMAINS IN STRUCTURAL METALLOPROTEIN AND METALLOENZYME TARGETS” (priority 2002, dated 2004).
Where a name gives a salt, the structure may show the parent alone. Read-outs that look alike come from different tables or passages of the source.

Assays:
[1] = test system: cancer cells in tissue culture; experiment: Activity against cancer cells in tissue culture relative to 2-thiophenecarboxylic acid
virally infected cells = experiment: Activity against virally infected cells relative to 2-thiophenecarboxylic acid; format: cell-based
CHO cells [2] = experiment: Growth of CHO cells (cell counts at 24, 48 and 72 h); settings: for inhibition at 3000 µM / inhibition at 10000 µM / inhibition at 1000 µM: Cricetulus griseus, CHO, read-out: growth inhibition; for time within which growth was strongly inhibited: 1 mM and 3 mM
Experimental: Cells were plated at 1.5×10^5 cells/60-mm dish; 24 hours later, the medium was removed, and new media with or without 0.05 to 10 mM final concentrations of 2-Furoic acid were added. Cell counts were determined at 24, 48 and 72 h after the addition of 2-Furoic acid; each point is the average of triplicate measurements from 3 cultures.

CHO cells [3] = test system: CHO cells
LD-50 = settings: in vivo
[4] = test system: many different cancer cell lines; experiment: Cytotoxicity in cancer cell lines in vitro; settings: uM concentrations
[5] = test system: human breast adenocarcinoma MDA-468 cell; experiment: Growth and viability of breast adenocarcinoma MDA-468 cells; format: cell-based; settings: 50 μM
Experimental: These floating cells were not viable. Within 48 h of treatment there was greater than 90% decrease in cell number.

LTA4 hydrolase = LTA4 hydrolase (Homo sapiens, UniProt P09960); settings: cited from earlier work
[6] = test system: Human Foreskin (HF) cells infected with HSV-2-strain G; format: cell-based

Chain of LTA4 hydrolase (P09960 whole entry): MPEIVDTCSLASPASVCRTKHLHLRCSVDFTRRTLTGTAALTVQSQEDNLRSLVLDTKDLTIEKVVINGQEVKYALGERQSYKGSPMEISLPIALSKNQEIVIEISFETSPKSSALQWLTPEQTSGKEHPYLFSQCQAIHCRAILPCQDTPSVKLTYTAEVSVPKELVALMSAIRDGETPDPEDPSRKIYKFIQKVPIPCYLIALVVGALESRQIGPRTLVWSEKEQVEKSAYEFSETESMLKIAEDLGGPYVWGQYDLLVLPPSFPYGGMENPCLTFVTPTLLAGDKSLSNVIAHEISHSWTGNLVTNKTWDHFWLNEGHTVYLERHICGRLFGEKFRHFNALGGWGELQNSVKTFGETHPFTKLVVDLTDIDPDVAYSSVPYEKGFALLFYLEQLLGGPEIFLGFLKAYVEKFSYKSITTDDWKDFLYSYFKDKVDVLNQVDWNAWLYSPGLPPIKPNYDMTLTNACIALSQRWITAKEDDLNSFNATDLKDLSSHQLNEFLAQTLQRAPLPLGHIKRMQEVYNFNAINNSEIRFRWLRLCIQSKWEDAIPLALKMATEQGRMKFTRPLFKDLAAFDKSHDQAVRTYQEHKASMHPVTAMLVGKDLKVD

CCCCc1csc(C(=O)NN)c1Cl
times more active than 2-thiophenecarboxylic acid [1]: 7-10 times
times more active than 2-thiophenecarboxylic acid (virally infected cells): 7-10 times

O=C(O)c1ccco1 [2-Furoic acid]
time within which growth was inhibited in a dose-dependent fashion (CHO cells [2]; CHO cells, 3 to 10 mM): ≤ 24 h
inhibition at 3000 µM (CHO cells [2]; 72 h): ~20%
inhibition at 10000 µM (CHO cells [2]; 72 h): ~40%
toxic effects on the cells (CHO cells [3]): no significant toxic effects

NNC(=O)c1cccs1 [2-TCAH, 2-thiophenecarboxylic acid hydrazide]
time within which growth was inhibited in a dose-dependent fashion (CHO cells [2]; CHO cells): ≤ 24 h
inhibition at 1000 µM (CHO cells [2]; 72 h): ~65%
inhibition at 10000 µM (CHO cells [2]; 72 h): ~90%
toxic effects on the cells (CHO cells [3]): significant toxic effects

O=C(O)c1cccs1 [2-TH acid, 2-thiophenecarboxylic acid]
LD-50 (LD-50): 30 grams/70 Kg

O=C(O)c1oc(Cl)c(Cl)c1Cl [3,4,5-TFA, 3,4,5-Trichloro-2-Furoic acid]
time within which growth was strongly inhibited (CHO cells [2]; CHO cells): ≤ 12 h
inhibition at 1000 µM (CHO cells [2]): > 80%
inhibition at 3000 µM (CHO cells [2]): > 99%
cytotoxicity and cell death, share of CHO cells (CHO cells [3]; Chinese hamster, 3 mM): greater than 99%

NN.O=C(O)c1sc(Cl)c(Cl)c1Cl [3,4,5-TTAH]
growth of CHO cells (CHO cells [2]; 500 uM): strongly inhibited
cytotoxicity and cell death, share of CHO cells (CHO cells [3]; 500 uM, 24-72 hours exposure): greater than 95%
detached cells destroyed by the agent (CHO cells [3]; 500 uM, 72 h, trypan blue dye exclusion test): > 99.9%

O=C(O)c1sc(Cl)c(Cl)c1Cl [3,4,5-TTA]
time within which growth was strongly inhibited (CHO cells [2]; CHO cells): ≤ 6 h
inhibition at 1000 µM (CHO cells [2]): > 98%
inhibition at 3000 µM (CHO cells [2]): 100%

CCCCc1csc(C(=O)NN)c1 [4-B-2-TAH, 4-butyl-2-Thiophenecarboxylic Acid Hydrazide]
cytotoxic effects [4]: pronounced cytotoxic effects
cell number ([5]; after 12 hours of treatment): no further increase in cell number
decrease in cell number ([5]; within 48 h of treatment): greater than 90%

C[C@H](CS)C(=O)N1CCC[C@H]1C(=O)O [Captopril]
inhibition of LTA4 hydrolase, concentration range (LTA4 hydrolase): low uM range

c1ccsc1 [Thiophene, reference compound]
effect on cell growth (CHO cells [2]; CHO cells, analog tested at 0.05 to 10 mM, up to 72 h): no significant effect on cell growth

O=C(O)c1ccccn1 [picolinic acid]
effect on infected cells [6]: cause apoptosis of HF infected cells
